The text below walks through data of patent publication US20160089464A1, “MALODOR REDUCTION COMPOSITIONS” (The Procter & Gamble Company, priority 2014, published 2016).

The first data set in a line: Comment Code material properties: vapor pressure, ClogP, probability of ingredient color instability, odor detection threshold, melamine formaldehyde PMC headspace response ratio and leakage, liquid dish neat product liquid-air partition coefficient. To be noted: Table 1 materials; each letter of the code is one property class (vapor pressure, ClogP, color instability, odor detection threshold, PMC headspace ratio, PMC leakage, liquid dish liquid-air partition coefficient). In kind it is physicochemical.
For `CCCOC(C)OCCC` [Material 767], the “Comment Code” value is reported as “ACEFGIKL”.
In the case of `COCCOC(C)OCc1ccccc1` (stereo not drawn) [Material 768], the “Comment Code” value is “BCEFHJK”.
Same read-out and setting: the entry for `CCCCCC(C=O)=Cc1ccc(C)cc1` [Material 769] is “DHJ”; for `C=CCCCCCCCC=O` [Material 770] it is “ADHKL”.
Take `O=C1CCCCCC=CCCCCCCCCO1` [Material 771]: the “Comment Code” value is “DGJ”.
Regarding `C=C(C)C1CCC2(C)CCC=C(C)C2C1` (stereo not drawn) [Material 774], the “Comment Code” value was “BDEFHJK”.
On to `CC1=CCCC2(C)CCC(C(C)(C)O)CC12` (stereo not drawn) [Material 775], for which the “Comment Code” value is listed as “DEFHJK”.
As to `CC(C)c1ccc2ncccc2c1` [Material 778], the “Comment Code” value is given as “CEFHJK”.
In the case of `CC1(C)C2CC=C(CCC=O)C1C2` (stereo not drawn) [Material 781], the “Comment Code” value is recorded as “BCFHJK”.
As for `CC(=O)CCCC(C)CCCC(C)CCCC(C)C` (stereo not drawn) [Material 782], the “Comment Code” value is given as “DEFHJK”.
Take `C=CC1(C)CCC(C(=C)C)O1` (stereo not drawn) [Material 786]: the “Comment Code” value is listed as “ACGIJKL”.
As for `O=C1CCCC=CCCCCCCCCCC1` [Material 788], the “Comment Code” value is given as “DEFGJK”.
As to `CC1=CCC(O)(C(C)C)CC1` (stereo not drawn) [Material 791], the “Comment Code” value is on record as “BCHIJK”.
For the compound `C=CCCC(=O)c1ccccc1` [Material 792], the “Comment Code” value was “BCEFHIK”.
For the compound `CC1=CCC(O)(C(C)C)CC1` (stereo not drawn) [Material 800], the “Comment Code” value is recorded as “BCHIJK”.
Still for that read-out and setting: the entry for `Cc1coc2c1CCC(C)C2` (stereo not drawn) [Material 802] is “BCEFHIJKL”; for `COc1ccc(CCC(C)=O)cc1` [Material 803] it is “BCEFHJK”.
As to `CC1C(=O)CC2(C)CCCC(C)(C)C23CC13` (stereo not drawn) [Material 804], the “Comment Code” value is “BDEFHJK”.
For the compound `CCC=C1OC(=O)c2ccccc21` [Material 805], the “Comment Code” value is recorded as “CEFHK”.
As for `CCCCCCCCCC=CC=O` [Material 806], the “Comment Code” value was “BDFHJK”.
On to `CC(CC=O)CCc1ccccc1` (stereo not drawn) [Material 807], for which the “Comment Code” value is on record as “BDFHJK”.
`CCC=CCCOC(=O)CC(C)C` [Material 814]: the “Comment Code” value is reported as “ADEFHJKL”.
Take `CCC(C)CCC(C)(CC)OC(C)=O` (stereo not drawn) [Material 821]: the “Comment Code” value is “ADEFHIJKL”.
Consider `CC(C)c1ccc(CCC=O)cc1` [Material 826], for which the “Comment Code” value is on record as “BDFHJK”.
Regarding `CCCCCCCCC=CC#N` [Material 827], the “Comment Code” value is given as “BDEFHJK”.
Take `CCCCCCCCC=CC=O` [Material 828]: the “Comment Code” value is “ADHJK”.
On to `CC/C=C/CC/C=C/C=O` [Material 829], for which the “Comment Code” value is reported as “ACHKL”.
Regarding `CCCC(=O)OCCc1ccccc1` [Material 831], the “Comment Code” value is “DEFHJK”.
Same read-out and setting: the entry for `O=CC(=Cc1ccco1)c1ccccc1` [Material 833] is “CHJ”; for `OCCOc1ccccc1` [Material 834] it is “BCEFGIK”.
`CCCCCCC=CC=O` [Material 837]: the “Comment Code” value was “ADHKL”.
In the case of `CCCCCCCC(C)O` (stereo not drawn) [Material 839], the “Comment Code” value is “BDEFGIKL”.
On to `CCCCCCCC(C)=O` [Material 840], for which the “Comment Code” value is recorded as “ADFHIKL”.
The same measure, in the same setting: the entry for `CC(C)Cc1ccc2ccccc2n1` [Material 849] is “CEFHJK”.
In the case of `CCCCCC=C1CCCC1=O` [Material 850], the “Comment Code” value is on record as “DFHJKL”.
For the compound `CCCCCCCC1CCCO1` (stereo not drawn) [Material 852], the “Comment Code” value is “BDEFHJKL”.
Turning to `CCCCCCCC=CC=O` [Material 856], the “Comment Code” value is reported as “ADHKL”.
On to `CCC=CCCC=CC=O` [Material 864], for which the “Comment Code” value was “ACHKL”.
Turning to `CCC=CCCC=CCO` [Material 865], the “Comment Code” value was “ACEFHK”.
Consider `CCC(C)CCCC(C)C=O` (stereo not drawn) [Material 866], for which the “Comment Code” value is given as “ADFGIJKL”.
As for `CCCCCCCCCCO` [Material 868], the “Comment Code” value is reported as “BDEFGJK”.
With `CCCCCC=COC(C)=O` [Material 869], the “Comment Code” value was “ACEFHKL”.
With `C=CCCCCCCCCCO` [Material 870], the “Comment Code” value is “DEFHJK”.
For `C=CCCCCCCCCC=O` [Material 871], the “Comment Code” value is reported as “ADHJK”.
Turning to `CC1=C2CC(C(C)(C)O)CCC2(C)CCC1` (stereo not drawn) [Material 872], the “Comment Code” value is recorded as “DFHJK”.
On to `CC12CCC(CC1)C(C)(C)S2` [Material 873], for which the “Comment Code” value is recorded as “ADEFHIJKL”.
Still for that read-out and setting: the entry for `C=CC=CC=CCCCCC` [Material 876] is “ADEFHJKL”; for `CCC(C)(O)CCC=C(C)C` (stereo not drawn) [Material 877] it is “BCEFGIJKL”; for `CC(=O)OC1C2(C)CCC(C2)C1(C)C` (stereo not drawn) [Material 878] it is “ADEFHIJKL”.
Turning to `CC1C(C)(C)c2ccccc2C1(C)C` [Material 879], the “Comment Code” value was “ADHIJKL”.
As for `CC(=O)OC(C)CCC=C(C)CCC=C(C)C` (stereo not drawn) [Material 881], the “Comment Code” value is “DEFHJK”.
The same measure, in the same setting: the entry for `CCCCCCCC/C=C\CC=O` [Material 884] is “BCFHJK”; for `CC(=O)OC(C)CC/C=C(\C)CCC=C(C)C` (stereo not drawn) [Material 890] it is “DEFHJK”; for `C/C(=C/C#N)CCc1ccccc1` [Material 892] it is “DEFHJK”.
As to `CC1CCC2(O1)C(C)(C)CCCC2(C)O` (stereo not drawn) [Material 893], the “Comment Code” value was “DFHIJK”.
On the same count and under the same terms, the entry for `C/C(=C\C#N)CCc1ccccc1` [Material 894] is “CEFHJK”.
As to `C=C(C)C1CCC(C)C(O)C1` (stereo not drawn) [Material 897], the “Comment Code” value is on record as “BCEFHIJKL”.
Take `CC(=CCC1CC=C(C)C1(C)C)CO` (stereo not drawn) [Material 908]: the “Comment Code” value is listed as “CHJK”.
As for `CC1=CC2CC(C3OCCO3)C1CC2C(C)C` (stereo not drawn) [Material 912], the “Comment Code” value is “DEFHJK”.
Same read-out and setting: under `C=C1CCCC(C)(C)C1C=C(C)C(C)=O` (stereo not drawn) [Material 913] stands “BDHIJK”; under `CC(C)c1cccc(C(C)CC=O)c1` (stereo not drawn) [Material 914], “BDHJK”; under `C=CC(C)(CCC=C(C)C)OC(C)OCC` (stereo not drawn) [Material 916], “BDEFHJK”.
For the compound `CCC(=O)OC1CC2CC1C1CC=CC21` (stereo not drawn) [Material 919], the “Comment Code” value was “CEFHJK”.
On the same count and under the same terms, under `CC1=C2CCC(C)C2CC(C(C)(C)O)CC1` (stereo not drawn) [Material 920] stands “DEFHJK”.
The same measure, in the same setting: the entry for `O=C(Cc1ccccc1)OCc1ccccc1` [Material 922] is “DHJ”.

The same data set, now with this note: cell strings several class symbols together; each letter is one property class of L1.
With `Cc1ccc2ncccc2c1` [Material 777], the “Comment Code” value was “BCEFHIKL”.
As to `CCC(C)CC(CC)CCCC(C)O` (stereo not drawn) [Material 779], the “Comment Code” value was “BDEFGIJKL”.
As to `CCC(=O)CC(C)CC` (stereo not drawn) [Material 784], the “Comment Code” value was “ACFGIKL”.
With `O=C1CCCC=CCCCCCCCCCC1` [Material 788], the “Comment Code” value is “DEFGJK”.
In the case of `C=Cc1ccc(O)cc1` [Material 789], the “Comment Code” value was “BCHIK”.
Take `CCc1ccc(OC)c(O)c1` [Material 797]: the “Comment Code” value is recorded as “CEFHIK”.
In the case of `CC1C(=O)CC2(C)CCCC(C)(C)C23CC13` (stereo not drawn) [Material 804], the “Comment Code” value is “BDEFHJK”.
Still for that read-out and setting: the entry for `Cc1n[nH]cc1-c1ccccc1` [Material 808] is “CEFHK”.
As to `CC1CCC(=O)C1=O` (stereo not drawn) [Material 810], the “Comment Code” value was “ACEFGIKL”.
`COc1cc(C)cc(O)c1` [Material 811]: the “Comment Code” value is reported as “BCHIK”.
In the case of `COC(C)(C)CCO` [Material 812], the “Comment Code” value is “ACGIKL”.
Turning to `CCC=CCCO` [Material 817], the “Comment Code” value is reported as “ACEFHIKL”.
For `C=C(C=O)C(C)CCC=C(C)C` (stereo not drawn) [Material 819], the “Comment Code” value is on record as “ADFHIJK”.
Turning to `CC(C)CCCC(C)CCO` (stereo not drawn) [Material 820], the “Comment Code” value is “BDEFGIJKL”.
On the same count and under the same terms, the entry for `CC(=O)OCCc1ccccc1` [Material 832] is “BCEFHK”; for `CCC(=O)OCCc1ccccc1` [Material 835] it is “BCEFHJK”.
In the case of `CCCCCC1CCCC1O` (stereo not drawn) [Material 836], the “Comment Code” value is on record as “DEFHIKL”.
As for `CCCCCCCC1(C)OCC(C)O1` (stereo not drawn) [Material 838], the “Comment Code” value is on record as “BDEFHJK”.
For `CCC(C)c1nccnc1OC` (stereo not drawn) [Material 845], the “Comment Code” value is on record as “BCEFGIK”.
On to `CNC(=O)C(C)(C(C)C)C(C)C` [Material 846], for which the “Comment Code” value is listed as “ACEFGIJK”.
The same measure, in the same setting: the entry for `CC(C)CC=C(C=O)C(C)C` [Material 847] is “ADFGIJKL”.
`Cc1csc(C(C)C)n1` [Material 848]: the “Comment Code” value is “ACHIJKL”.
On to `CCCC=CCO` [Material 851], for which the “Comment Code” value was “ACEFHIKL”.
As to `CC(C)C12CCC(C)(CC1)O2` [Material 875], the “Comment Code” value was “ADGIJKL”.
Turning to `CC=CC(=O)C1C(C)=CCCC1(C)C` (stereo not drawn) [Material 880], the “Comment Code” value was “BDHIJK”.
With `CCC/C=C\CCOC(C)=O` [Material 882], the “Comment Code” value is “ACEFHKL”.
In the case of `CC1=CC(=O)C2CC1C2(C)C` (stereo not drawn) [Material 883], the “Comment Code” value was “ACEFGIJKL”.
`C=C[C@](C)(O)CCC=C(C)C` [Material 888]: the “Comment Code” value is recorded as “BCEFGIJK”.
In the case of `CC(C)=CCCC(C)CC=O` (stereo not drawn) [Material 889], the “Comment Code” value is given as “ACHIJKL”.
Same read-out and setting: the entry for `CC(C)=CCCC(C)CC=O` (stereo not drawn) [Material 891] is “ACHIJKL”; for `CC(C)=CCCC(C)CCO` (stereo not drawn) [Material 899] it is “BCHIJKL”.
For the compound `CC(C)=CCCC(C)CCO` (stereo not drawn) [Material 900], the “Comment Code” value is listed as “BCHIJKL”.
On the same count and under the same terms, the entry for `CC1=CC[C@@H]2C[C@H]1C2(C)C` [Material 901] is “ADEFGIJKL”.
As to `C=C(C)C1CC=C(C)C(=O)C1` (stereo not drawn) [Material 902], the “Comment Code” value is given as “ACGIJKL”.
Consider `CC1=CC[C@H]2C[C@@H]1C2(C)C` [Material 903], for which the “Comment Code” value is recorded as “ADEFGIJKL”.
Consider `CCC(C)C(=O)OC` (stereo not drawn) [Material 904], for which the “Comment Code” value is given as “ACEFGIKL”.
Take `C/C=C(\C)C(=O)OCCCCCC` [Material 909]: the “Comment Code” value is “BDEFHJKL”.
For the compound `C=CCOC(=O)COC1CCCCC1` [Material 918], the “Comment Code” value is reported as “CHJK”.
For `CCC(=O)OC1CC2CC1C1CC=CC21` (stereo not drawn) [Material 919], the “Comment Code” value is “CEFHJK”.
Regarding `CC12CCCC(C)(CC1)C2=NO` [Material 921], the “Comment Code” value is reported as “CFHIJK”.
